Read-outs that look alike come from different tables or passages of the source.
Assays:
[1] = test system: yeast cells; settings: 1 mM nitrite, light 3 doses of 6.4 J/cm^2
Description: The effects of broad spectrum light on the expression of the nuclear COX genes for Cco and the overall level of cellular respiration were examined. Because cytochrome c oxidase is a major regulator of respiration and because the nuclear genes (COX) for cytochrome c oxidase are highly regulated by a variety of environmental factors and function to regulate the overall activity of Cco, their level of expression provides a useful measure for the long-term effects of light on Cco. Similarly, the rate of respiration per se provides a direct measure of the effects of light on the entire respiratory chain.
Yeast cells were grown in liquid media for three hours, which is equivalent to the time it takes for one cell division. […]
Light from a Broadband 50 watt Xenon/Halogen Floodlight was administered at the beginning of each hour for a total of 3 doses, each at 6.4 J/cm^2 (105 mW/cm^2). After 3 hours, cells were harvested and analyzed for measurement of gene expression (by quantitiative PCR), or respiration (by polarographic oxygen consumption). qPCR was performed with primers designed for COX of Cco subunits COX4, COX5a, COX5b, COX6, and COX8. Each sample was run in duplicate and gene expression was quantified by normalizing to PMAI, a yeast gene that is expressed at constant levels, irrespective of the environment in which cells are grown.

[2] = test system: NT2 cells; test: Oxidative stress induced APP processing in NT2 cells; format: cell-based; settings: for APP processing as assessed by Aβ1-42 production: FIG. 17
Description: Broadband light reverses oxidative stress induced APP processing to Aβ1-42. […] Broad band light (7.5 Joules total dose) reversed the oxidative stress affects back to control levels (FIG. 17).
Broadband light reverses oxidative stress induced APP processing to Aβ1-40. […] Broad band light (7.5 Joules total dose) reversed the oxidative stress affects back to control levels (FIG. 18).

[3] = target: T1, mitochondrial Cco (Mus musculus, UniProt P00397); test: Cco/NO activity (nitrite-dependent NO synthesis) in cerebrum mitochondria, NO electrode; format: biochemical; settings: hypoxic conditions, ascorbate/TMPD as electron donor pair, cerebrum mitochondria of 7-12 day old mice
T1 construct: These experiments used mitochondria isolated from the cerebrum of 7-12 day old mice; from tissue; host or cells: mitochondria from mouse cerebrum (7-12 day old mice)
Description: We have studied Cco/NO activity in both human endothelial cells and mouse brain nervous tissue. All of the assays for Cco/NO activity were done in a closed chamber, as described elsewhere (Castello et al. 2006, Cell Metabolism 3, 277-287). Cells or mitochondria were allowed to respire and consume oxygen all of the oxygen in the chamber before the addition of nitrite, which initiated the reaction.
Results with mouse nerve cells. These experiments used mitochondria isolated from the cerebrum of 7-12 day old mice. Using the same assay we used for endothelial cell mitochondria, we assayed Cco/NO activity under hypoxic conditions with ascorbate/TMPD as an electron donor pair. […] To confirm that we had measured NO synthesis we added PTIO, an NO scavenger.

O=NO [+Nitrite, nitrite] was tested, and the “Oxygen Consumption” value ([1]; Hypoxia (1% O2)) was 14.27 ± 0.26 nmol/min/mg cells and the “Oxygen Consumption” value ([1]; Normoxia) was 15.21 ± 0.47 nmol/min/mg cells.
In the case of CCCCCC(O)/C=C/C=O (stereo not drawn) [FINE], the “APP processing as assessed by Aβ1-42 production” value [2] is reported as “dramatic increases” and the “APP processing as assessed by Aβ1-40 production” value ([2]; FIG. 18) is reported as “dramatic increases”.
In the case of OO [H2O2], the “APP processing as assessed by Aβ1-42 production” value [2] is reported as “dramatic increases”.
For CC1(C)N([O])C(c2ccccc2)=[N+]([O-])C1(C)C [PTIO], the “Removal of the NO produced by mitochondrial Cco (NO scavenger)” value [3] was “completely removes the NO produced”.

Reference: patent US20160008627A1, “METHODS AND DEVICES FOR VISIBLE LIGHT MODULATION OF MITOCHONDRIAL FUNCTION IN HYPOXIA AND DISEASE” (Clarimedix Inc., priority 2008, published 2016)
